Experimental data from the supplement of paper PMC8671470.

Experiments:
Experiment in all cases: area under dose-response curve (viability, 1 nM-10 uM) (fraction (0-1)); higher = more sensitive
Settings in all cases: 72 h
[1] = tested on: myeloid leukemia patient primary cells Pat.10
In short: (§1)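 Seventy compounds were pre-printed on 384-well plates at five tenfold concentrations between 1 and 10,000 nM, in duplicate. Thawed mononuclear cells purified by Ficoll from AML or CML patients were added at 10,000 cells/well in RPMI 1640 with 10% FBS for 72 h. Viability by CellTiter-Glo was normalised to DMSO and 10 μM proteasome-inhibitor wells. Where stated, area under the curve was taken from log-logistic fits made with the drc and PharmacoGx R packages, each fit having four parameters.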

[2] = tested on: myeloid leukemia patient primary cells Pat.11
In short: as §1

[3] = tested on: myeloid leukemia patient primary cells Pat.12
In short: as §1

[4] = tested on: myeloid leukemia patient primary cells Pat.13
In short: as §1

[5] = tested on: myeloid leukemia patient primary cells Pat.14
In short: as §1

[6] = tested on: myeloid leukemia patient primary cells Pat.15
In short: as §1

[7] = tested on: myeloid leukemia patient primary cells Pat.1
In short: as §1

[8] = tested on: myeloid leukemia patient primary cells Pat.2
In short: as §1

[9] = tested on: myeloid leukemia patient primary cells Pat.3
In short: as §1

[10] = tested on: myeloid leukemia patient primary cells Pat.5
In short: as §1

[11] = tested on: myeloid leukemia patient primary cells Pat.6
In short: as §1

[12] = tested on: myeloid leukemia patient primary cells Pat.7
In short: as §1

[13] = tested on: myeloid leukemia patient primary cells Pat.8
In short: as §1

[14] = tested on: myeloid leukemia patient primary cells Pat.9
In short: as §1

Row | Compound | area under dose-response curve [1] | area under dose-response curve [2] | area under dose-response curve [3] | area under dose-response curve [4] | area under dose-response curve [5] | area under dose-response curve [6] | area under dose-response curve [7] | area under dose-response curve [8] | area under dose-response curve [9] | area under dose-response curve [10] | area under dose-response curve [11] | area under dose-response curve [12] | area under dose-response curve [13] | area under dose-response curve [14]
1 | O=C(C1CC1)N1CC[C@@H](C=C2NNC(=O)N2c2ccc(-c3ccc4occc4c3)cc2)C1 | 0.082 | < 0.0301 | < 0.0301 | < 0.0301 | < 0.0301 | < 0.0301 | < 0.0301 | < 0.0301 | < 0.0301 | 0.292 | < 0.0301 | < 0.0301 | < 0.0301 | 0.235
2 | N#CC(C#N)=NNc1ccc(OC(F)(F)F)cc1 [FCCP] | 0.466 | 0.158 | 0.0898 | 0.211 | 0.316 | 0.159 | 0.214 | 0.0623 | 0.361 | 0.825 | 0.175 | 0.366 | 0.116 | 0.361
3 | O=C1c2cc([N+](=O)[O-])ccc2-n2c1nc1ccccc1c2=O [GNF-Pf-3777] | 0.27 |  | < 0.0301 | 0.115 | 0.071 | 0.0672 |  | 0.0426 | 0.265 | 0.292 | 0.0546 | 0.0749 |  | 0.158
4 | COc1cc(/C=C/C(=O)N2CCC=CC2=O)cc(OC)c1OC [Piperlongumine] | < 0.0301 | 0.121 | 0.162 | 0.149 | 0.244 | 0.191 | 0.143 | 0.125 | 0.219 | 0.585 | 0.116 | 0.0802 | 0.144 | 0.505
5 | Oc1ccc(Nc2nc(-c3ccc(Cl)cc3)cs2)cc1 [SKI II] | 0.291 | < 0.0301 | 0.0339 | 0.0533 | 0.304 | 0.0495 | 0.054 | 0.0376 | 0.238 |  | 0.0895 | 0.424 | 0.054 | 0.341
6 | CCC(=O)N1CCN(c2ccc(-n3c(=O)ccc4cnc5ccc(-c6cnc7ccccc7c6)cc5c43)cc2C(F)(F)F)CC1 [Torin1] | 0.477 | 0.183 | < 0.0301 | 0.218 | 0.225 | 0.614 | 0.457 |  |  | 0.802 |  | 0.195 | 0.0632 | 0.36
7 | O=C1O/C(=C/Br)CCC1c1cccc2ccccc12 (stereo not given) [Bromoenol Lactone] | 0.515 | 0.0656 | 0.084 | 0.0877 | 0.324 | 0.132 | 0.135 | 0.0768 | 0.447 | 0.828 | 0.0918 | 0.287 | 0.0529 | 0.651
8 | CC[C@@]1(O)C(=O)OCc2c1cc1n(c2=O)Cc2cc3c(CN(C)C)c(O)ccc3nc2-1 [Topotecan] | 0.507 | 0.0826 | 0.0406 | 0.0753 | 0.231 | 0.225 | 0.0609 | 0.127 | 0.54 | 0.426 | 0.147 | 0.282 | 0.0586 | 0.245
